Measured values as given in patent publication US5731357A, “Immunomodulating active substance” (priority 1996, dated 1998).

Key:
[1] = tested on: antibody-forming cells in mouse spleen (sheep erythrocytes as antigen); assay: Antibody-forming cell (AFC) count in mouse spleen, local hemolysis reaction (humoral immune response); type: in vivo; settings: for AFC stimulation degree: C57B1/6; for AFC count per 10^6 nucleated spleen cells: C57B1/6 males 20-22 g; for AFC stimulating effect: 50.0 mg/kg, low responsive line mice
[2] = tested on: hemagglutinin titers for sheep erythrocytes in mouse serum; assay: Hemagglutinin (HA) titer for sheep erythrocytes in mouse serum; type: in vivo
[3] = tested on: delayed skin reaction (DSR) to sheep erythrocytes; assay: Delayed skin reaction (DSR); type: in vivo, mouse; settings: inosiplex 0.5, 5.0 and 50.0 mg/kg; mice of two lines; listed as In
Procedure: Experimental animals were intraperitoneally administered doses of 10.0 and 100.0 mg/kg in 0.1 ml in parallel to antigen administration; similar doses were given per os for 5 days before antigen administration.
(§1) In was dissolved in physiological solution and administered intraperitonerally at single doses together with antigen (sheep erytrcytes). Physiological solution was used as a control.
(§2) 3. DSR deermination using intravenoous immunization of mice with sheep erythrocytes administered at a dose of 2×10^5 cells. A resolution dose (1×10^8 cells in 0.04 ml of physiological solution) was injected in a hind footpad on the 5th day following immunization. Local inflammatory reaction was accounted for 24 hours later by the difference of mass between experimental (Re) and control (Rc) footpads. Reaction index (RI) was calculated for each mouse using the following formula: [formula] 4. GVHR determination. GVHR was induced by subcutaneous administration of 2×10^6 lymph node cells of […] (CBA) into right hind footpads of line F1 (CBA×C57B1/6) mice. Syngeneic lymphocytes were administered into left footpads. Cell count was determined in 5 ml of homogenate of left (control) and right (experiment) lymph nodes.

[4] = tested on: graft-versus-host reaction (GVHR); assay: Graft-versus-host reaction (GVHR); type: in vivo, mouse; settings: inosiplex 50.0 mg/kg
Procedure: as §1, §2

peritoneal macrophages = assay: Phagocytic activity of peritoneal macrophages (opsonized sheep erythrocytes); type: in vivo, mouse; settings: for Stimulation degree (phagocytosis completion index increase): F1 mice
Procedure: 5. Estimation of phagocytic activity of peritoneal macrophages in mice, using JgG-opsonized sheep erythrocytes as the phagocytosis target /10/. Macrophages were attracted by 4-percent hydrolyzed starch solution. On the 3rd or 4th day, 0.5 ml of 5-percent sheep erythrocyte suspension were administered intraperitoneally. Following 60 minutes, exudate was removed. Non phagocytic sheep erythrocytes were subjected to lysis. Cell suspension was washed out. The preparation stained per Romanovsky-Gimze was determined for phagocyting cell percentage. To determine phagocytic index (PI1), the number of sheep erythroccytes captured was calculated spectrophotometrically /11/ by hemoglobin concentration using a calibration curve. Phagocytic index (P12) was determined again following 3 hours of incubation at 37° C. Phagocytosis completion index (PCI) was calculatd using the following formula: [formula] […] Then, for 15 minutes blood was taken from orbital sinus (0.020 ml) every 3 minutes and introduced into 1 ml of 3-percent acetic acid. Blood taking completed, animals were killed and body weight, liver and spleen weight were measured. Optical density of hemolyzed blood determined spectrophometrically at 610 nm wavelenght, and the f (D) t curve was plotted. Points lg (0) (zero time) and lg(10) (on the curve) were located. Phagocytosys constant (K) was calculated using the following formula: [formula] and then true phagocytosis index (α) was calculated using the following formula: [formula] 7. Complement activity determination using the titration technique employing rabbit erythrocytes treated with hyperimmune antiserum of guinea pig /12/ for direct activation route and employing rabbit erythrocytes treated with potassium iodide solution /13/ for alternative activation route. Activity was expressed in units 50-percent lysis per ml of serum (CH50).
The effect of In given at doses of 0.5, 5.0 and 50.0 mg/kg on phagocytosis index was studied in hybrid line F1 (CBA×C57B1/6) mice, with he drug administered intraperitonreallly 30 minutes before injection of the phagocytosis target, i.e. sheep erythrocytes.

[5] = tested on: ink clearance, phagocytic activity in vivo; assay: Ink clearance (phagocytosis in vivo); parameters: species or system mouse; settings: In intraperitoneally 0.5, 5.0 and 50.0 mg/kg
Procedure: 5. Estimation of phagocytic activity of peritoneal macrophages in mice, using JgG-opsonized sheep erythrocytes as the phagocytosis target /10/. Macrophages were attracted by 4-percent hydrolyzed starch solution. On the 3rd or 4th day, 0.5 ml of 5-percent sheep erythrocyte suspension were administered intraperitoneally. Following 60 minutes, exudate was removed. Non phagocytic sheep erythrocytes were subjected to lysis. Cell suspension was washed out. The preparation stained per Romanovsky-Gimze was determined for phagocyting cell percentage. To determine phagocytic index (PI1), the number of sheep erythroccytes captured was calculated spectrophotometrically /11/ by hemoglobin concentration using a calibration curve. Phagocytic index (P12) was determined again following 3 hours of incubation at 37° C. Phagocytosis completion index (PCI) was calculatd using the following formula: [formula] […] Blood taking completed, animals were killed and body weight, liver and spleen weight were measured. Optical density of hemolyzed blood determined spectrophometrically at 610 nm wavelenght, and the f (D) t curve was plotted. […] Phagocytosys constant (K) was calculated using the following formula: [formula] and then true phagocytosis index (α) was calculated using the following formula: [formula] […]

[6] = third dose column (printed 5.0 mg/kg), 2 × 10^7 sheep erythrocytes

SMILES: CC(=O)Nc1ccc(C(=O)O)cc1.CC(=O)Nc1ccc(C(=O)O)cc1.CC(=O)Nc1ccc(C(=O)O)cc1.CC(O)CN(C)C.CC(O)CN(C)C.CC(O)CN(C)C.O=c1[nH]cnc2c1ncn2[C@@H]1O[C@H](CO)[C@@H](O)[C@H]1O [Inosiplex]
- AFC stimulation degree ([1]; 0.5 mg/kg, 10^8 sheep erythrocytes (optimum)): 90%
- AFC count per 10^6 nucleated spleen cells ([1]; 0.5 mg/kg, 2 × 10^7 sheep erythrocytes): 52(63'44)
- AFC count per 10^6 nucleated spleen cells ([1]; 0.5 mg/kg, 10^8 sheep erythrocytes, p < 0.05): 158(186'134)
- AFC stimulation degree ([1]; 5.0 mg/kg, 2 × 10^7 sheep erythrocytes (suboptimum)): 38%
- AFC stimulation degree ([1]; 5.0 mg/kg, 10^8 sheep erythrocytes (optimum)): 82%
- AFC count per 10^6 nucleated spleen cells ([1]; 5.0 mg/kg, 2 × 10^7 sheep erythrocytes): 117(149'98)
- AFC count per 10^6 nucleated spleen cells ([1]; 5.0 mg/kg, 10^8 sheep erythrocytes, p < 0.05): 151(169'134)
- AFC stimulating effect ([1]; optimum immunisation): 139%
- AFC stimulating effect ([1]; suboptimum immunisation): 32%
- stimulation of humoral immune response ([1]; 5.0 and 50.0 mg/kg, animals low responsive to antigen): 1.3-1.8 fold
- antibody-forming cells in the spleen (in words) ([1]; common to inosplex and Rp): Stimulation of forming antibody-forming cells in the spleen
- humoral immune reaction (in words) ([1]; strong-replied animals, optimal dose of antigen): Suppress of humoral immune reaction
- AFC stimulation degree [1, 6]: 32%
- AFC stimulation degree ([1]; third dose column (printed 5.0 mg/kg), 10^8 sheep erythrocytes): 139%
- AFC count per 10^6 nucleated spleen cells [1, 6]: 112(141'89)
- AFC count per 10^6 nucleated spleen cells ([1]; third dose column (printed 5.0 mg/kg), 10^8 sheep erythrocytes, p < 0.01): 199(245'162)
- humoral immune reaction (in words) ([1]; weak-replied animals, and strong-replied mice with suboptimum dose of antigen): Stimulation of humoral immune reaction
- HA titer, 14th day after immunisation ([2]; 250.0 mg/kg, CBA males 20-22 g, n = 8, suboptimum sheep erythrocyte dose, P< 0.02): 8.5 log2
- stimulation of hemagglutinin production (fold) ([2]; 250.0 mg/kg, line CBA): as much as two times
- stimulation of hemagglutinin production (log2 of hemagglutinin titer) ([2]; 250.0 mg/kg, line CBA): 1 log2 of hemagglutinin titer
- effect on hemagglutinin titer (in words) ([2]; 0.5, 5.0 and 25.0 mg/kg, line CBA, 7th and 14th day, suboptimum immunisation): no stimulating effect
- DSR intensity (in words) [3]: no changes in the reaction intensity
- GVHR (in words) [4]: slight inhibitory effect
- Stimulation degree (phagocytosis completion index increase) (peritoneal macrophages; 5.0 mg/kg, intraperitoneal): 39%
- Stimulation degree (phagocytosis completion index increase) (peritoneal macrophages; 50.0 mg/kg, intraperitoneal): 76%
- phagocytosis and digesting ability of macrophages (in words) (peritoneal macrophages; common to inosplex and Rp): Stimulation of phagocytosis and digesting ability of macrophages
- phagocytosis index (in words) (peritoneal macrophages; inosiplex 0.5 mg/kg, F1, intraperitoneal): no stimulation effect
- stimulation of phagocytosis completion (peritoneal macrophages; intraperitoneal 5.0 and 50.0 mg/kg): 1.4-1.7 times
- blood clearence rate (in words) [5]: no effect on blood clearence rate
- capturing intensity of inert ink particles (in words) [5]: no changes in capturing intensity of inert ink particles
